Laboratory results reported in patent US20230190743A1, “TREATMENT WITH ILEAL BILE ACID TRANSPORTER (IBAT) INHIBITORS FOR INCREASED EVENT-FREE SURVIVAL (EFS)” (Mirum Pharmaceuticals, Inc., priority 2021, published 2023).
Entries after “also recorded” stand apart in the source; their conditions may differ.

Key:
[1] = tested on: children with FIC1 or BSEP deficiencies (PFIC); assay: INDIGO open-label Phase 2 long-term efficacy and safety study; assay type: in vivo, human; conditions: for tolerability: up to 5 years of treatment
Method: INDIGO investigated the effect of maralixibat on sBA levels and cholestatic pruritus, alongside other biochemical markers of cholestasis and liver disease in these patients.
The study was conducted at 12 hospitals in France, Poland, the United Kingdom, and the United States. Screening evaluations were performed in the 6 weeks prior to the start of the study. In patients without documented ATP8B1 or ABCB11 mutations, genetic testing was performed.
The primary efficacy endpoint was the change in mean fasting sBA levels from Baseline to Week 13 in the overall intent-to-treat (ITT) study population. The key secondary efficacy endpoint was the mean change in observer-rated pruritus (Itch Reported Outcome Observer [ItchRO(Obs)]) score from Baseline to Week 13 in the overall ITT study population. Other secondary efficacy endpoints included the mean changes from Baseline to Week 13 in total cholesterol, low- and high-density lipoprotein cholesterol (LDL-C and HDL-C, respectively), and serum triglyceride levels in the overall ITT study population. Additional efficacy and safety analyses included the change from Baseline to Week 72 and Week 240 in sBA levels, patient height and weight, bile acid synthesis (as determined by the ratio between sBA levels and 7α-hydroxy-4-cholesten-3-one [7α-C4] levels), quality of life as measured by the Pediatric Quality of Life Inventory™ (PedsQL™), mean changes in ALT, aspartate aminotransferase (AST), and bilirubin (total and direct), lipid profiles, and FSV levels. The ItchRO assessment was not performed at Week 72, so data from Week 48 were used instead.
Efficacy and safety analyses were performed for the overall ITT study population as well as the two PFIC subtypes (FIC1 deficiency and BSEP deficiency) separately. Patients with BSEP deficiency were analyzed overall and according to their mutation type (t-BSEP and nt-BSEP). Long-term changes in pruritus scores, patient height, blood lipids, liver parameters, and transplant-free survival were assessed according to a responder analysis.
Quantitative analysis of the 15 major sBAs and serum 7α-C4 was performed at a single site (Cincinnati) by stable isotope dilution electrospray ionization liquid chromatography-mass spectrometry (LCMS/MS) using a fully validated proprietary assay that complies with College of American Pathologists/Clinical Laboratory Improvement Amendments certification. The study protocol defined a composite response to maralixibat as achieving a ≥1.0-point reduction in ItchRO(Obs) score and a ≥70% reduction or normalization of sBA levels from Baseline. […] Pruritus was measured using the ItchRO tool, which was specifically developed and validated to evaluate pruritus in children with cholestatic liver diseases, based on a five-point scale where 0=‘none’ and 4=‘very severe’. […] The ItchRO measure was completed twice daily via an eDiary. Parents/caregivers completed the ItchRO(Obs) assessment for all patients. Additionally, children ≥9 years of age completed the ItchRO(Pt) assessment. Levels of ALT, AST, bilirubin (total and direct), lipids, and FSV were assessed using standard clinical laboratory techniques. Quality of life was assessed using the PedsQL™ questionnaire. […] The occurrence of treatment-emergent adverse events (TEAEs) and serious adverse events (SAEs) was assessed throughout the study.

children with ALGS = assay: ICONIC study, correlation of pruritus intensity (ItchRO) with cholestasis biomarkers and quality of life; assay type: in vivo, human
Source text: This study evaluates how change in pruritus intensity correlates with change in cholestasis biomarkers in children with ALGS receiving maralixibat (ICONIC study; NCT02160782, described above). The goal of the present study is to characterize correlations between pruritus, as measured by the Itch-Reported Outcome (ItchRO) Observer tool, and multiple parameters, including sBA and sBA subspecies, autotaxin (ATX), and quality of life measures following maralixibat treatment in children with ALGS. Twenty-nine of the 31 enrolled participants completed 48 weeks of treatment, with 27 evaluated for this analysis.

## CCCCC1(CCCC)CS(=O)(=O)c2ccc(N(C)C)cc2[C@@H](c2ccc(OCc3ccc(C[N+]45CCN(CC4)CC5)cc3)cc2)[C@H]1O [maralixibat]
[1]; 266 μg/kg once daily
  sBA responders who achieved response during once-daily dosing: six and Six
[1]; 266 μg/kg twice daily, after Week 97
  sBA responders who achieved response after switching to twice-daily dosing: one
[1]; 18 patients
  TEAE cough, patients: 55%
[1]; 19 patients
  TEAE diarrhea, patients: 58%
[1]; 20 patients
  TEAE pyrexia, patients: 61%
[1]; 33 patients
  TEAEs mild or moderate in severity: 58%
[1]; 33 patients, result in words
  patients who experienced ≥1 TEAE: All patients
[1]; P<0.001 vs sBA responders, result in words
  sBA non-responders with transplant-free survival after >5 years: none
[1]; Week 13, ITT population, 95% CI −1.04, −0.53, P<0.001
  mean reduction from Baseline in ItchRO(Obs) score: −0.8
[1]; Week 13, ITT population, 95% CI −1.55, −0.47, P=0.002
  mean reduction from Baseline in ItchRO(Pt) score: −1.0
[1]; during the study
  patients with serious TEAEs: 15 patients
[1]; eight patients with FIC1 deficiency, result in words
  patients with FIC1 deficiency who met the sBA responder criteria: No patient
[1]; in vivo
  SAEs abdominal pain, diarrhea, and gastroenteritis: two
  patients who discontinued due to adverse events or liver transplantation following disease progression: 12 patients
[1]; listed for refractory pruritus at the beginning of the study
  sBA responders listed for liver transplantation who were removed from the transplant waiting list: Two
[1]; n=19 nt-BSEP
  patients with nt-BSEP who achieved sBA response: 37%
[1]; of 19 patients with nt-BSEP
  patients with nt-BSEP with rapid and sustained reductions in sBA levels: 6 patients
[1]; of 19 with nt-BSEP, during the study
  patients with nt-BSEP who achieved sBA response (reduction >75% from baseline or <102.0 μmol/L): seven
[1]; one with FIC1 deficiency, seven with BSEP deficiency
  patients who discontinued maralixibat due to an adverse event: Eight
[1]; overall ITT population (33 patients), 95% CI −74.830, 41.070, P=0.884
  change in sBA levels from Baseline to Week 13: -16.9 µmol/L
[1]; patients with FIC1 deficiency, long-term, result in words
  mean levels of sBA, ItchRO(Obs) scores, and PedsQL scores versus Baseline: did not change significantly
[1]; patients with nt-BSEP, Week 240, 95% CI 4.07, 48.50, P=0.027
  change in mean level of serum 7α-C4: +26.29 ng/mL
[1]; result in words
  deaths during the study: No deaths
  effect on levels of FSV or liver transaminases: did not have any significant detrimental effects
  tolerability: generally safe and well tolerated
[1]; sBA non-responders
  sBA non-responders with clinically meaningful (>1.0 points) reduction in ItchRO(Obs): Three
[1]; sBA non-responders, Week 72, 95% CI −0.606, −0.012
  change in weight z-score (decrease): −0.30
[1]; sBA responders
  time to decrease of sBA levels upon treatment initiation: 2-4 Weeks
[1]; sBA responders, Week 72, 95% CI 0.369, 0.976, P=0.0016
  change from Baseline in mean height z-score: 0.67
[1]; sBA responders, Week 72, 95% CI −0.001, 0.603, P=0.051
  change from Baseline in mean weight z-score: 0.30
[1]; sBA responders, if elevated at Baseline, result in words
  serum ALT, AST, and bilirubin levels: improvements and/or normalization
[1]; sBA responders, 95% CI 6.7, 40.6, P=0.014
  change in mean PedsQL score from Baseline to Week 240: 24 points
[1]; sBA responders, result in words
  7α-C4/sBA ratio compared with Baseline: generally increased; also recorded: increased rapidly
[1]; six patients with t-BSEP, result in words
  patients with t-BSEP who met the sBA responder criteria: No patients and No patient and none
[1]; result in words, listed as Maralixibat
  tolerability: generally well-tolerated; also recorded: generally well tolerated
Children with ALGS; at week 48
  overall average ItchRO score reduction: 1.6 points
Children with ALGS; one participant
  ItchRO score reduction of the one participant who normalized: −3.5 points
Children with ALGS; result in words
  pruritus, using ItchRO and CSS scores: significant and clinically meaningful improvements in pruritus
Children with ALGS; sBA reduction (%) 50, N 8
  Change in ItchRO score (points): −1.90 points
Children with ALGS; sBA reduction (%) 60, N 8
  Change in ItchRO score (points): −2.12 points
Children with ALGS; sBA reduction (%) 70, N 6
  Change in ItchRO score (points): −2.31 points
Children with ALGS; sBA reduction (%) 80, N 3
  Change in ItchRO score (points): −2.79 points
Children with ALGS; sBA reduction (%) 90, N 1
  Change in ItchRO score (points): −2.71 points
